In PubChem BioAssay (NCI):
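Growth conditions: 96-well plates. Treatment: test compound, 48 hours, 5 concentrations. Analysis: linear interpolation between bracketing concentrations; unreached endpoints set to highest concentration. TGI is the concentration that stops growth completely.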

Tests used:
Test in all cases: NCI-60 cell line screen, 48 h
[1] = test system: PC-3 prostate
[2] = test system: SF-295 CNS
[3] = test system: NCI-H460 lung
[4] = test system: 786-0 renal
[5] = test system: ACHN renal
[6] = test system: HOP-92 NSCLC
[7] = test system: SNB-19 CNS
[8] = test system: LOX IMVI melanoma
[9] = test system: OVCAR-4 ovarian
[10] = test system: HOP-62 NSCLC
[11] = test system: TK-10 renal
[12] = test system: SK-MEL-28 melanoma
[13] = test system: A549 NSCLC
[14] = test system: SF-268 CNS
[15] = test system: SN12C renal
[16] = test system: NCI-H23 lung
[17] = test system: SK-OV-3 ovarian
[18] = test system: MDA-N
[19] = test system: SK-MEL-2 melanoma
[20] = test system: M14 melanoma
[21] = test system: RXF 393 renal
[22] = test system: COLO 205 colon
[23] = test system: MALME-3M melanoma
[24] = test system: SNB-75 CNS
[25] = test system: U251 CNS
[26] = test system: MDA-MB-435
[27] = test system: MCF7 breast
[28] = test system: UACC-257 melanoma
[29] = test system: HS 578T breast
[30] = test system: CCRF-CEM leukemia
[31] = test system: CAKI-1 renal
[32] = test system: KM12 colon
[33] = test system: K-562 leukemia
[34] = test system: UACC-62 melanoma
[35] = test system: HCC-2998 colon
[36] = test system: NCI/ADR-RES ovarian
[37] = test system: MDA-MB-231 breast
[38] = test system: HL-60(TB) leukemia
[39] = test system: T-47D breast
[40] = test system: OVCAR-8 ovarian
[41] = test system: IGROV1 ovarian
[42] = test system: HT29 colon
[43] = test system: HCT-15 colon
[44] = test system: HCT-116 colon
[45] = test system: DU-145 prostate
[46] = test system: A498 renal
[47] = test system: OVCAR-5 ovarian
[48] = test system: OVCAR-3 ovarian
[49] = test system: RPMI-8226 leukemia
[50] = test system: SW-620 colon
[51] = test system: SK-MEL-5 melanoma
[52] = test system: MOLT-4 leukemia
[53] = test system: UO-31 renal
[54] = test system: NCI-H226 lung
[55] = test system: SF-539 CNS
[56] = test system: SR leukemia
[57] = test system: EKVX NSCLC
[58] = test system: NCI-H522 lung
[59] = test system: BT-549 breast

O=c1oc2ccccc2c(-c2ccc(O)cc2)c1Oc1ccccc1
TGI [1]: > 96.1 µM
TGI [2]: 53.6 µM
TGI [3]: 20.5 µM
TGI [4]: 66.4 µM
TGI [5]: > 100 µM
TGI [6]: 26.6 µM
TGI [7]: 50.6 µM
TGI [8]: > 31.6 µM
TGI [9]: > 56.7 µM
TGI [10]: > 100 µM
TGI [11]: > 96.7 µM
TGI [12]: > 66.1 µM
TGI [13]: > 66.9 µM
TGI [14]: 25.6 µM
TGI [15]: 55.3 µM
TGI [16]: 18.7 µM
TGI [17]: > 100 µM
TGI [18]: 58.5 µM
TGI [19]: 18.5 µM
TGI [20]: 32.1 µM
TGI [21]: > 74 µM
TGI [22]: > 69.6 µM
TGI [23]: 9.26 µM
TGI [24]: > 79.3 µM
TGI [25]: 24.9 µM
TGI [26]: > 100 µM
TGI [27]: > 100 µM
TGI [28]: 30.7 µM
TGI [29]: 18.2 µM
TGI [30]: > 100 µM
TGI [31]: > 75.7 µM
TGI [32]: > 68.5 µM
TGI [33]: > 100 µM
TGI [34]: 18.6 µM
TGI [35]: 19.8 µM
TGI [36]: > 100 µM
TGI [37]: > 100 µM
TGI [38]: > 100 µM
TGI [39]: > 100 µM
TGI [40]: > 31.6 µM
TGI [41]: 18.6 µM
TGI [42]: > 100 µM
TGI [43]: > 70 µM
TGI [44]: > 87.9 µM
TGI [45]: > 63.9 µM
TGI [46]: 23.5 µM
TGI [47]: 70 µM
TGI [48]: > 63.3 µM
TGI [49]: > 100 µM
TGI [50]: > 100 µM
TGI [51]: 41.2 µM
TGI [52]: > 100 µM
TGI [53]: 32.3 µM
TGI [54]: > 75.7 µM
TGI [55]: > 75.5 µM
TGI [56]: > 100 µM
TGI [57]: 49.9 µM

c1ccc(C(NC2=NCCO2)C2CC2)cc1 (stereo unspecified)
TGI [1]: > 100 µM
TGI [2]: > 100 µM
TGI [3]: > 100 µM
TGI [4]: > 100 µM
TGI [5]: > 100 µM
TGI [6]: > 100 µM
TGI [7]: > 100 µM
TGI [8]: > 100 µM
TGI [9]: > 100 µM
TGI [10]: > 100 µM
TGI [11]: > 100 µM
TGI [12]: > 100 µM
TGI [13]: > 100 µM
TGI [14]: > 100 µM
TGI [15]: > 100 µM
TGI [16]: > 100 µM
TGI [17]: > 100 µM
TGI [18]: > 100 µM
TGI [19]: > 100 µM
TGI [20]: > 100 µM
TGI [21]: > 100 µM
TGI [22]: > 100 µM
TGI [23]: > 100 µM
TGI [24]: > 100 µM
TGI [25]: > 100 µM
TGI [26]: > 100 µM
TGI [27]: > 100 µM
TGI [28]: > 100 µM
TGI [29]: > 100 µM
TGI [32]: > 100 µM
TGI [34]: > 100 µM
TGI [35]: > 100 µM
TGI [36]: > 100 µM
TGI [37]: > 100 µM
TGI [39]: > 100 µM
TGI [40]: > 100 µM
TGI [41]: > 100 µM
TGI [42]: > 100 µM
TGI [43]: > 100 µM
TGI [44]: > 100 µM
TGI [45]: > 100 µM
TGI [58]: > 100 µM
TGI [46]: > 100 µM
TGI [47]: > 100 µM
TGI [48]: > 100 µM
TGI [49]: > 100 µM
TGI [50]: > 100 µM
TGI [51]: > 100 µM
TGI [52]: > 100 µM
TGI [53]: > 100 µM
TGI [54]: > 100 µM
TGI [55]: > 100 µM
TGI [56]: > 100 µM
TGI [57]: > 100 µM

NC1=C(c2nc(-c3ccccc3)cs2)C(c2ccco2)c2c(c3ccccc3oc2=O)O1 (stereo unspecified)
TGI [1]: > 100 µM
TGI [2]: > 100 µM
TGI [3]: > 100 µM
TGI [4]: > 100 µM
TGI [5]: > 100 µM
TGI [6]: > 100 µM
TGI [7]: > 100 µM
TGI [8]: > 100 µM
TGI [9]: > 100 µM
TGI [10]: > 100 µM
TGI [11]: > 100 µM
TGI [12]: > 100 µM
TGI [13]: > 100 µM
TGI [14]: > 100 µM
TGI [15]: > 100 µM
TGI [16]: > 100 µM
TGI [17]: > 100 µM
TGI [18]: > 100 µM
TGI [19]: > 100 µM
TGI [20]: > 100 µM
TGI [21]: > 100 µM
TGI [22]: > 100 µM
TGI [23]: > 100 µM
TGI [24]: > 100 µM
TGI [25]: > 100 µM
TGI [26]: > 100 µM
TGI [27]: > 100 µM
TGI [28]: > 100 µM
TGI [29]: > 100 µM
TGI [30]: > 100 µM
TGI [31]: > 100 µM
TGI [33]: > 100 µM
TGI [34]: > 100 µM
TGI [35]: > 100 µM
TGI [36]: > 100 µM
TGI [37]: > 100 µM
TGI [38]: > 100 µM
TGI [40]: > 100 µM
TGI [41]: > 100 µM
TGI [42]: > 100 µM
TGI [43]: > 100 µM
TGI [44]: > 100 µM
TGI [45]: > 100 µM
TGI [58]: > 100 µM
TGI [46]: > 100 µM
TGI [47]: > 100 µM
TGI [48]: > 100 µM
TGI [50]: > 100 µM
TGI [51]: > 100 µM
TGI [59]: > 100 µM
TGI [53]: > 100 µM
TGI [54]: > 100 µM
TGI [55]: > 100 µM
TGI [56]: > 100 µM
TGI [57]: > 100 µM
